In patent US6172061A, “Pharmaceutical composition for antagonizing CCR5 comprising anilide derivative” (Takeda Chemical Industries, Ltd., priority 1997, dated 2001):

How the values were obtained:
[1] = biological target: T1, human CCR5 (Homo sapiens, UniProt P51681); experiment: inhibition of [^125 I]-RANTES binding to CHO/CCR5 cells (CCR5 antagonistic activity); conditions: Test Compound 1 μM, 100 pM [^125 I]-RANTES, room temperature 30 minutes; for inhibition at 1 µM: read-out: Inhibition Rate (%) to CCR5 binding
T1 construct: expressed in transfected cells; host or cells: CHO-K1 (plasmid pCKR5 in pcDNA3.1, geneticin-selected CHO/CCR5 cells)
Experimental: Cloning of CCR5 gene was carried out by PCR (polymerase chain reaction) from human spleen cDNA. With using 0.5 ng of spleen cDNA (Toyobo, QUICK-Clone cDNA) as template, PCR was performed in DNA Thermal Cycler 480 (Perkin-Elmer) (reaction conditions: 30 cycles of 95° C. for 1 minute, 60° C. for 1 minute, and 75° C. for 5 minutes) by adding primer set, 5'-CAGGATCCGATG […]-3' (25 pmol) and 5'-TCTAGATCACAAGCC CACAGATATTTCCTGCTCC-3' (25 pmol), which were designed referring to nucleotide sequence of CCR5 gene reported by Samson et al. (Biochemistry, 35(11), 3362-3367 (1996)) and by using TaKaRa EX Taq (Takara Shuzo). The resultant PCR product was subjected to agarose gel electrophoresis to collect about 1.0 kb DNA fragment, which was subjected to Original TA Cloning Kit (Funakoshi) to carry out cloning of CCR5 gene.
The plasmid obtained in the above (1) was digested with restriction enzymes XbaI (Takara Shuzo) and BamHI (Takara Shuzo) and subjected to agarose gel electrophoresis to collect about 1.0 kb DNA fragment. The DNA fragment was mixed with plasmid pcDNA3.1 (Funakoshi) for expression in animal cells, said plasmid being digested with XbaI and BamHI, and they were ligated with DNA Ligation Kit Ver.2 (Takara Shuzo). The resulting plasmid was subjected to transformation of competent cell of E. coli JM109 (Takara Shuzo) to obtain plasmid pCKR^5.
CHO-K1 cells were grown in 750 ml of tissue culture flask (Becton Dickinson) using Ham's F12 medium (Nihon Pharmaceutical) containing 10% fetal calf serum (Life Tech Oriental) and took off with 0.5 g/L trypsin-0.2 g/L EDTA (Life Tech Oriental). The cells were washed with PBS (Life Tech Oriental), centrifuged (1000 rpm, 5 minutes), and suspended in PBS. With using Gene Pulser (Bio-Rad Laboratories), DNA was introduced into the cells under the conditions shown below. That is, to the cuvette of 0.4 cm gap were added 8×10^6 cells and 10 μg of plasmid pCKR^5 for expression of human CCR5, and electroporation was carried out under 0.25 kV of voltage and 960 μF of capacitance. The cells were transferred into Ham's F12 medium (Nihon Pharmaceutical) containing 10% fetal calf serum, and cultivated for 24 hours. The cells were again took off and centrifuged, and suspended in Ham's F12 medium (Nihon Pharmaceutical) containing 10% fetal calf serum and 500 μg/ml of geneticin (Life Tech Oriental). The suspension was diluted to give 10^4 cells/ml of the suspension, which was inoculated on 96 well plate (Becton Dickinson) to give geneticin resistant cells. The resulting geneticin resistant cells were cultivated in 96 well plate (Becton Dickinson), and cells expressing CCR5 were selected from the geneticin resistant cells. That is, in assay buffer (Ham's F12 medium containing 0.5% BSA and 20 mM HEPES (Wako Pure Chemical, pH7.2) to which was added 200 pM of [^125 I]-RANTES (Amersham) as ligand, binding reaction as carried out at room temperature for 40 minutes, and the buffer was washed with cooled PBS. To the buffer was added 50 μl/well of 1M NaOH, and the mixture was stirred. Radioactivity was determined with γ-counter to select CHO/CCR5 cells which specifically bind to the ligand.
The CHO/CCR5 were inoculated on 96 well microplate (5×10^4 cells/well) and cultivated for 24 hours. The medium was removed by means of suction, and to each well was added assay buffer containing Test Compound (1 μM) and then 100 pM of [^125 I]-RANTES (Amersham) as ligand. Binding assay was carried out at room temperature for 30 minutes, and assay buffer was removed by means of suction. Each well was washed twice with cooled PBS, and 200 μl of Microscint-20 (Packard Instrument, Inc.) was added to each well. Radio-activity was determined with Top-Count Micro Scintillation Counter (Packard Instrument, Inc.).
According to the method described above, inhibition rate of Test Compound (whose number is referred to in the following Examples) to CCR5 binding.

[2] = system: HIV-1; experiment: Inhibitory Effect on HIV-1 Infection to MAGI^- CCR5 Cell; assay type: cell-based, HIV-1 BA-L; conditions: MAGI-CCR5 cells, 2 days
Experimental: The plasmid where β-galactosidase gene was ligated downstream of HIV-1 LTR was introduced into CD4 positive HeLa cell, to which human CCR5 was further introduced to obtain transformant MAGI^- CCR5. By using said transformant MAGI^- CCR5, degree of HIV-1 infection was calculated from β-galactosidase activity (blue color due to decomposition of 5-bromo-4-chloro-3-indolyl-β-D-galactopyranoside).
Specifically, MAGI-CCR5 cells were suspended in DMEM medium containing 10% serum to prepare 5×10^4 cells/ml suspension. To each well of 96 well plate was inoculated 200 μl of the suspension, and the cells were cultivated at 37° C. overnight. The medium was removed by means of suction, and to the residue was added 100 μl of the above medium containing 1.6μM of Test Compound 96 or 0.064 μM of Test Compound 248 and 100 μl of the above medium containing 300 PFU of HIV-1 BA-L cells. The cells were cultivated at 37° C. for 2 days. The medium was removed by means of suction. To the residue was added 200 μl of cell fixative (PBS containing 1% formaldehyde and 0.2% glutaraldehyde), and the mixture was allowed to stand at room temperature for 5 minutes and washed twice with PBS. […] The number of blue cells was counted by microscope and defined as the number of cells infected with HIV-1.

[3] = system: HIV-1; experiment: Inhibitory Effect on HIV-1 Infection to Human PBMC; assay type: cell-based, HIV-1 BA-L; conditions: 7 days, p24 antigen ELISA
Experimental: From normal person human peripheral blood mononuclear cells (PBMC) were separated, and the cells were stimulated with 10 μg/ml of PHA (Phytohemaglutinin) and 20U/ml of interleukin-2 (IL-2) for 3 days. The cells were suspended in RPMI-1640 medium containing 20% serum to prepare 1×10^6 /ml suspension. To the suspension were infected HIV-1 BA-L cells (20 ng as an amount of p24 antigen), and viruses were absorbed at 37° C. for 2 hours. The cells were washed and suspended in RPMI-1640 medium containing 20% serum and IL-2 20 U/ml to prepare 1×10^5 /ml suspension. To the PBMC suspension was added the same amount of a solution which contains 2.0 μM of Test Compound 96 or 0.32 μM of Test Compound 248, and the cells were cultivated at 37° C. for 7 days in carbon dioxide gas incubator. The amount of p24 antigen in supernatant of the cultivated medium was determined by enzyme-linked immunosorbent assay (ELISA) and defined as degree of HIV-1 infection.

T1 sequence (P51681 whole entry): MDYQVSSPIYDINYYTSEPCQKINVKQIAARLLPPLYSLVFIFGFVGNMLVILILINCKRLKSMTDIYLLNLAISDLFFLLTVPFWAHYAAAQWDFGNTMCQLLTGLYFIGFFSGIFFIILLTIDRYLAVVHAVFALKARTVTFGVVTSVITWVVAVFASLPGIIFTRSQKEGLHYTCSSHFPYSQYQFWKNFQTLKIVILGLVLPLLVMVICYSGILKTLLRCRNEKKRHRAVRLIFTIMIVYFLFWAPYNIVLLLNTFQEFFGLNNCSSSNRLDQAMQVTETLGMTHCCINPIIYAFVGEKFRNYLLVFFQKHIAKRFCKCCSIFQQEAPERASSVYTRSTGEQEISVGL

Compound | inhibition at 1 µM [1] [%] | further results
Cc1ccc(-c2ccc3c(c2)C=C(C(=O)Nc2ccc(C[N+]4(C)CCCCC4)cc2)CC3)cc1 [Compound 16, 1-methyl-1-[4-[7-(4-methylphenyl)-3,4-dihydronaphthalene-2-carboxamido]benzyl]piperidinium iodide] | 88 | 
Cc1ccc(-c2ccc3c(c2)C=C(C(=O)Nc2ccc(C[N+](C)(C)C4CCOCC4)cc2)CCC3)cc1 [Compound 248, N,N-dimethyl-N-(4-(((2-(4-methylphenyl)-6,7-dihydro-5H-benzocyclohepten-8-yl)carbonyl)amino)benzyl)-N-(4-tetrahydropyranyl)ammonium chloride] | 99 | inhibition rate on HIV-1 infection ([2]; 100 μl medium containing 0.064 μM Test Compound 248 plus 100 μl medium with 300 PFU HIV-1 BA-L): 100%; inhibition rate on HIV-1 infection ([3]; same amount of solution containing 0.32 μM Test Compound 248 added): 74%
Cc1ccc(-c2ccc3c(c2)C=C(C(=O)Nc2ccc(C[N+]4(C)CCCCC4)cc2)CCO3)cc1 [Compound 97, 1-(N-(7-(4-methylphenyl)-2,3-dihydro-1-benzoxepin-4-carbonyl)-4-aminobenzyl)-1-methylpiperidinium chloride] |  | Inhibition Rate (%) to CCR5 binding [1]: 94%
Cc1ccc(-c2ccc(/C=C/C(=O)Nc3ccc(CP4(=O)CCCCC4)cc3)s2)cc1 [Compound 209, (E)-N-(4-pentamethylenephosphorylmethylphenyl)-3-[5-(4-methylphenyl)-thiophen-2-yl]acrylic amide] | 80 | 
CC(C)(C)c1ccc(-c2ccc3c(c2)C=C(C(=O)Nc2ccc(CP4(=O)CCCCC4)cc2)CCO3)cc1 [Compound 180, N-(4-(pentamethylene)phosphorylmethyl-phenyl)-7-(4-tert-butylphenyl)-2,3-dihydro-1-benzoxepine-4-carboxamide] | 99 | 
Cc1ccc(-c2ccc3c(c2)C=C(C(=O)Nc2ccc(CC[N+]4(C)CCCCC4)cc2)CCO3)cc1 [Compound 100, N-((7-(4-methylphenyl)-2,3-dihydro-1-benzoxepin-4-carbonyl)-2-(4-aminophenyl)ethyl)-N-methylpiperidinium iodide] | 100 | 
Cc1ccc(-c2ccc3c(c2)C=C(C(=O)Nc2ccc(C[N+]4(C)CCCCC4)cc2)CCC3)cc1 [Compound 92, 1-(N-(2-(4-methylphenyl)-6,7-dihydro-5H-benzocycloheptene-8-carbonyl)-4-aminobenzyl)-1-methylpiperidinium iodide] | 100 | 
Cc1ccc(-c2ccc3c(c2)C=C(C(=O)Nc2ccc(C[N+]4(C)CCCCC4)cc2)CCO3)cc1 [Compound 96, 1-(N-(7-(4-methylphenyl)-2,3-dihydro-1-benzoxepin-4carbonyl)-4-aminobenzyl)-1-methylpiperidinium iodide] | 93 | inhibition rate on HIV-1 infection ([2]; 100 μl medium containing 1.6 μM Test Compound 96 plus 100 μl medium with 300 PFU HIV-1 BA-L): 92%; inhibition rate on HIV-1 infection ([3]; same amount of solution containing 2.0 μM Test Compound 96 added): 96%

Now from value to compound, other results behind:

inhibition at 1 µM [1] [%] | Compound | further results
96 | Cc1ccc(-c2ccc3c(c2)C=C(C(=O)Nc2ccc(C[N+](C)(C)C4CCC(=O)CC4)cc2)CCO3)cc1 [Compound 249, N,N-dimethyl-N-(4-(((7-(4-methylphenyl)-2,3-dihydro-1-benzoxepin-4-yl)carbonyl)amino)benzyl)-N-(4-oxocyclohexyl)ammoniumchloride] | 
96 | CCOc1ccc(-c2ccc3c(c2)C=C(C(=O)Nc2ccc(C[N+](C)(C)C4CCOCC4)cc2)CCO3)cc1 [Compound 250, N-(4-(((7-(4-ethoxyphenyl)-2,3-dihydro-1-benzoxepin-4-yl)carbonyl)amino)benzyl)-N,N-dimethyl-N-(4-tetrahydropyranyl)ammonium chloride] | 
73 | Cc1ccc(-c2ccc3c(c2)C=C(C(=O)Nc2ccc(CP4(=O)OCCCO4)cc2)CCO3)cc1 [Reference Example 51, 2-(4-(7-(4-methylphenyl)-2,3-dihydro-1-benzoxepin-4-carbonylamino)benzyl)-1,3,2-dioxaphosphorinane-2-oxide] | 
87 | Cc1ccc(-c2ccc3c(c2)C=C(C(=O)Nc2ccc(CN(C)C4CCOCC4)cc2)CCO3)cc1 [Compound 128, N-(4-(N-methyl-(N-tetrahydropyran-4-yl)aminomethyl)-phenyl)-7-(4-methylphenyl)-2,3-dihydro-1-benzoxepine-4-carboxamide] | 
